Reference: PubChem BioAssay (NCI)
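Growth conditions: 96-well plates. Treatment: test compound, 48 hours, 5 concentrations. Analysis: linear interpolation between bracketing concentrations; unreached endpoints set to highest concentration. TGI denotes the concentration required for complete inhibition of growth.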

Key:
Experiment in all cases: DTP human tumour cell line panel, 48 h
KM12 colon = system: KM12 colon
SF-295 CNS = system: SF-295 CNS
SF-539 CNS = system: SF-539 CNS
MALME-3M melanoma = system: MALME-3M melanoma
SN12C renal = system: SN12C renal
K-562 leukemia = system: K-562 leukemia
IGROV1 ovarian = system: IGROV1 ovarian
KM20L2 colon = system: KM20L2 colon
EKVX NSCLC = system: EKVX NSCLC
HL-60(TB) leukemia = system: HL-60(TB) leukemia
786-0 renal = system: 786-0 renal
NCI-H226 lung = system: NCI-H226 lung
NCI-H460 lung = system: NCI-H460 lung
SNB-19 CNS = system: SNB-19 CNS
UACC-257 melanoma = system: UACC-257 melanoma
U251 CNS = system: U251 CNS
SW-620 colon = system: SW-620 colon
SK-MEL-5 melanoma = system: SK-MEL-5 melanoma
UO-31 renal = system: UO-31 renal
COLO 205 colon = system: COLO 205 colon
LOX IMVI melanoma = system: LOX IMVI melanoma
HCC-2998 colon = system: HCC-2998 colon
HCT-116 colon = system: HCT-116 colon
XF 498 CNS = system: XF 498 CNS
ACHN renal = system: ACHN renal
SNB-78 CNS = system: SNB-78 CNS
UACC-62 melanoma = system: UACC-62 melanoma
TK-10 renal = system: TK-10 renal
A549 NSCLC = system: A549 NSCLC
NCI-H522 lung = system: NCI-H522 lung
SR leukemia = system: SR leukemia
CCRF-CEM leukemia = system: CCRF-CEM leukemia
SK-MEL-28 melanoma = system: SK-MEL-28 melanoma
HCT-15 colon = system: HCT-15 colon
OVCAR-8 ovarian = system: OVCAR-8 ovarian
OVCAR-3 ovarian = system: OVCAR-3 ovarian
LXFL 529 NSCLC = system: LXFL 529 NSCLC
HOP-62 NSCLC = system: HOP-62 NSCLC
RXF 393 renal = system: RXF 393 renal
SK-OV-3 ovarian = system: SK-OV-3 ovarian
SNB-75 CNS = system: SNB-75 CNS
MOLT-4 leukemia = system: MOLT-4 leukemia
SF-268 CNS = system: SF-268 CNS
SK-MEL-2 melanoma = system: SK-MEL-2 melanoma
HT29 colon = system: HT29 colon
M14 melanoma = system: M14 melanoma
OVCAR-4 ovarian = system: OVCAR-4 ovarian
DMS 273 small cell lung = system: DMS 273 small cell lung
DLD-1 colon = system: DLD-1 colon
NCI-H23 lung = system: NCI-H23 lung
HOP-92 NSCLC = system: HOP-92 NSCLC
A498 renal = system: A498 renal
OVCAR-5 ovarian = system: OVCAR-5 ovarian
RPMI-8226 leukemia = system: RPMI-8226 leukemia
M19-MEL melanoma = system: M19-MEL melanoma
CAKI-1 renal = system: CAKI-1 renal
DMS 114 small cell lung = system: DMS 114 small cell lung

Measured: TGI

Cc1nc2c(n1CC(C)(C)C)C(=O)c1ccccc1C2=O
> 100 µM: KM12 colon | SF-295 CNS | SF-539 CNS | MALME-3M melanoma | SN12C renal | K-562 leukemia | IGROV1 ovarian | KM20L2 colon | EKVX NSCLC | HL-60(TB) leukemia | 786-0 renal | NCI-H226 lung | NCI-H460 lung | SNB-19 CNS | UACC-257 melanoma | U251 CNS | SW-620 colon | SK-MEL-5 melanoma | UO-31 renal | COLO 205 colon | LOX IMVI melanoma | HCC-2998 colon | HCT-116 colon | XF 498 CNS | ACHN renal | SNB-78 CNS | UACC-62 melanoma | TK-10 renal | A549 NSCLC | NCI-H522 lung | SR leukemia | CCRF-CEM leukemia | SK-MEL-28 melanoma | HCT-15 colon | OVCAR-8 ovarian | OVCAR-3 ovarian | LXFL 529 NSCLC | HOP-62 NSCLC | RXF 393 renal | SK-OV-3 ovarian | SNB-75 CNS | MOLT-4 leukemia | SF-268 CNS | SK-MEL-2 melanoma | HT29 colon | M14 melanoma | OVCAR-4 ovarian | DMS 273 small cell lung | DLD-1 colon | NCI-H23 lung | HOP-92 NSCLC

CCCO/N=[N+](\[O-])N(CC)CC
> 100 µM: KM12 colon | SF-295 CNS | SF-539 CNS | SN12C renal | K-562 leukemia | IGROV1 ovarian | KM20L2 colon | A498 renal | EKVX NSCLC | HL-60(TB) leukemia | NCI-H226 lung | NCI-H460 lung | SNB-19 CNS | UACC-257 melanoma | U251 CNS | SW-620 colon | SK-MEL-5 melanoma | UO-31 renal | LOX IMVI melanoma | HCC-2998 colon | HCT-116 colon | XF 498 CNS | ACHN renal | SNB-78 CNS | UACC-62 melanoma | TK-10 renal | A549 NSCLC | NCI-H522 lung | SR leukemia | CCRF-CEM leukemia | SK-MEL-28 melanoma | HCT-15 colon | OVCAR-8 ovarian | OVCAR-3 ovarian | LXFL 529 NSCLC | HOP-62 NSCLC | RXF 393 renal | SK-OV-3 ovarian | MOLT-4 leukemia | SF-268 CNS | SK-MEL-2 melanoma | HT29 colon | M14 melanoma | DMS 273 small cell lung | NCI-H23 lung | OVCAR-5 ovarian | HOP-92 NSCLC

CCC1(Br)C(=O)NC(=O)N(C2CC(O)C(CO)O2)C1N=[N+]=[N-] (stereo not given)
> 100 µM: SF-295 CNS | SF-539 CNS | MALME-3M melanoma | SN12C renal | K-562 leukemia | IGROV1 ovarian | KM20L2 colon | A498 renal | EKVX NSCLC | HL-60(TB) leukemia | RPMI-8226 leukemia | 786-0 renal | NCI-H460 lung | SNB-19 CNS | UACC-257 melanoma | U251 CNS | SW-620 colon | SK-MEL-5 melanoma | UO-31 renal | M19-MEL melanoma | COLO 205 colon | LOX IMVI melanoma | HCC-2998 colon | XF 498 CNS | ACHN renal | SNB-78 CNS | UACC-62 melanoma | TK-10 renal | A549 NSCLC | NCI-H522 lung | CCRF-CEM leukemia | SK-MEL-28 melanoma | OVCAR-8 ovarian | OVCAR-3 ovarian | LXFL 529 NSCLC | HOP-62 NSCLC | RXF 393 renal | SK-OV-3 ovarian | SNB-75 CNS | MOLT-4 leukemia | SF-268 CNS | SK-MEL-2 melanoma | HT29 colon | CAKI-1 renal | M14 melanoma | OVCAR-4 ovarian | DMS 114 small cell lung | DMS 273 small cell lung | DLD-1 colon | NCI-H23 lung | OVCAR-5 ovarian | HOP-92 NSCLC
